Experimental data reported in US20250288553A1, “Antimicrobial Compositions and Uses for Treatment of Clostridioides difficile, Mycobacterium tuberculosis, and Enterococcus faecalis Infection” (priority 2022, published 2025).
≈ marks a conversion by molar mass, not a printed value.

Legend:
active Mtb = conditions: earlier screen (ref 12); cited from earlier work
dormant Mtb = conditions: earlier screen (ref 12); cited from earlier work
Mtb = conditions: at a concentration of 12.5 μg/mL; cited from earlier work
[1] = system: dormant Mtb-lux (Mycobacterium tuberculosis CDC1551 with pMV306hsp+LuxG13); assay type: cell-based; conditions: for R/D (MICR/MICD, Mtb-lux): ratio replicating MIC to dormant MIC
[2] = system: Mycobacterium tuberculosis H37Ra ATCC 25177; assay: MIC against Mtb H37Ra, resazurin microtiter assay (REMA); assay type: cell-based; conditions: Mycobacterium tuberculosis, 336 h, determined visually by REMA assay, 14-day incubation; read-out: MIC Mtb H37Ra
[3] = system: HepG2 (human liver carcinoma) cell line; assay: Cytotoxicity assay HepG2
Cytotoxicity assay HepG2 = conditions: human
[4] = system: M. smegmatis mc^2155 ATCC 700084; assay: MIC against M. smegmatis, REMA; assay type: cell-based, Mycobacterium smegmatis; conditions: Mycolicibacterium smegmatis, ATCC700084|MC^2155; determined visually by REMA assay, 24-hour incubation
[5] = system: replicating Mtb-lux (Mycobacterium tuberculosis CDC1551 with pMV306hsp+LuxG13); assay type: cell-based
[6] = system: Clostridioides difficile NAP1; assay: MIC against C. difficile NAP1, modified broth microdilution; conditions: for MIC C. difficile: NAP1, modified broth microdilution, 48 h, anaerobic
[7] = system: J774A.1 (murine macrophage-like) cell line; assay: Cytotoxicity assay J774A.1; assay type: cell-based
Experimental: (§1) To evaluate the selectivity of the top six compounds from the Mtb-lux activity screen (Table 2), cytotoxicity for two different mammalian cell lines was determined. The IC50 was calculated for each compound against J774A.1 and HepG2 cell lines. The selectivity index (SI) for both replicating and dormant conditions was then calculated by taking the IC50 and dividing it by the corresponding MIC (SIR=IC50/MICR, SID=IC50/MICD)^40. Consistent with the experience, the J774 macrophage cell line was more sensitive to all compounds tested. […] Based on these observations, this triacetate protected puupehenone represents a promising candidate for further optimization.
(§2) Cytotoxicity assay: Cytotoxicity was assessed using J774A.1 (murine macrophage-like) and HepG2 (human liver carcinoma) cell lines using 2-fold dilution of the compounds as described previously^42, 43. IC50 values were determined using nonlinear regression fitting of the databy GraphPad Prism. The selectivity Index (SI) was calculated as IC50/MIC.

[8] = Cytotoxicity assay J774A.1; assay type: cell-based, murine; conditions: mouse, J774A.1 macrophage-like cells; J774A.1 cells; read-out: Cytotoxicity (IC50) J774
Experimental: as §1, §2

[9] = system: TcdA production in C. difficile NAP1; assay: Toxin analysis: extracellular TcdA of C. difficile NAP1 at sub-MICs, western blot; assay type: cell-based, Clostridioides difficile; conditions: NAP1 challenged with 0.5×, 0.25×, 0.125× MIC, 48 h, TcdA normalized to total protein
Experimental: After a 48 h incubation of NAP1 challenged with several dilutions of each compound, extracellular toxin in spent media derived from triplicate cultures was assessed with western blots using a monoclonal antibody against TcdA. Semi-quantitative analysis of toxin levels was performed via densitometry of TcdA band intensity with respect to total protein as measured by the Bradford assay. Semi-quantitative plots are shown below each representative blot. (a) Toxin production in BHIS (NAP1) and BHIS with 5% DMSO (vehicle). (b) Toxin production from cultures challenged with sub-MICs of fidaxomicin, (c) vancomycin, and (d-j) (+)-puupehenone and selected derivatives. Data points represent the means of adjusted toxin levels derived from triplicate cultures, while error bars represent standard deviations. Statistical analysis was performed in GraphPad Prism 8 using unpaired t-tests. *P<0.05; **P<0.01.
To account for changes in biomass, a semi-quantitative analysis of TcdA production was performed by normalizing the target bands from representative western blots to the amount of total protein in each sample.
Toxin analysis. Toxin production was determined by analyzing the amount of extracellular toxin in the cultures from the ASTs described above. At 48 h, total protein of each culture was determined with the Bradford assay using bovine serum albumin (BSA) as a standard.^53 Cultures were then centrifuged at 5,000×g for 5 minutes to clear the supernatants which were separately collected and frozen at −20° C. After thawing at room temperature, cell-free supernatants were mixed 1:1 with 2× Laemmli buffer and incubated in a sand bath at 100° C. for 5 minutes. Twenty microliters of denatured samples were loaded onto 7.5% Tris-glycine gels and electrophoresed at 200 V for 1 h. After electrophoresis, samples were transferred to polyvinylidene difluoride membranes at 4° C. overnight at 30 V. Membranes were incubated in a blocking buffer (20 mM Tris-HCl, 150 mM NaCl, 0.01 mM ethylenediaminetetraacetic acid, 0.1% Tween 20, 1% BSA, [pH 7.5]) for 1 h at room temperature. TcdA was detected with a monoclonal mouse anti-TcdA antibody (PCG4.1, Novus Biologicals) and a rabbit anti-mouse antibody conjugated with alkaline phosphatase. Blots were visualized with a ChemiDoc XRS+ imaging system (Bio-Rad).
Semi-quantitative analysis of TcdA was performed using Image Lab 6.0 software (Bio-Rad). Briefly, after subtracting background noise, peaks corresponding to the target band were selected with the software's Lane Profile tool. The density of each peak generated a value (arbitrary units) that was normalized to the total protein amount of each respective sample. […] These losses of activity prevented us from performing statistical analysis from multiple experiments, as the sub-MICs were not always the same. Since there were no changes to the methodology described, several other reasons could have accounted for decreased activity, such as compound stability, freeze-thaw, and adherence to plastic. Nevertheless, the toxin results were reproducible, irrespective of the exact sub-MICs on different days.

[10] = system: Enterococcus faecalis ATCC 29212; assay: MIC against E. faecalis, REMA; conditions: REMA, visual, 24 h
[11] = system: Staphylococcus aureus ATCC 25923; assay: MIC against S. aureus, REMA; conditions: visual, 24 h
[12] = system: Bacillus subtilis ATCC 23857; assay: MIC against B. subtilis, REMA; conditions: REMA, visual, 24 h

Compound | MIC against active Mtb (active Mtb) [µg/mL] | MIC in multistress dormancy model of Mtb (dormant Mtb) [µg/mL] | inhibition of Mtb (Mtb) [%] | MICD (Mtb-lux) [1] [µg/mL] | R/D (MICR/MICD, Mtb-lux) [1] | MICR (Mtb-lux) [5] [µg/mL] | MIC C. difficile [6] [µg/mL] | Effect on TcdA toxin production [9] | also measured
CC1(C)CCC[C@]2(C)C3=CC4=CC(=O)C(=O)C=C4O[C@@]3(C)CC[C@@H]12 [Compound 2, Puupehedione] | 87.6 (≈ 268 µM) | 15.4 |  |  |  |  |  |  | 
CO[C@@H]1c2cc(O)c(O)cc2O[C@@]2(C)CCC3C(C)(C)CCC[C@]3(C)[C@@H]12 (stereo partly drawn) [Compound 3, 15-α-methoxypuupehenol] | 11.3 (≈ 31.3 µM) | 0.5 |  |  |  |  |  |  | 
CC1(C)CCC[C@]2(C)[C@H]3[C@H](C#N)c4cc(O)c(O)cc4O[C@@]3(C)CC[C@@H]12 [Compound 4, 15-α-cyanopuupehenol] |  |  | 96 |  |  |  |  |  | 
CC1(C)CCC[C@]2(C)[C@H]3C(C#N)=C4C=C(O)C(=O)C=C4O[C@@]3(C)CC[C@@H]12 [Compound 5, 15-cyanopuupehenone] |  |  | 90 |  |  |  |  |  | 
CO[C@@H]1c2cc(OC(C)=O)c(OC(C)=O)cc2O[C@@]2(C)CC[C@H]3C(C)(C)CCC[C@]3(C)[C@@H]12 [Compound 15] |  |  |  | 1.7 | 5.2 | 8.9 | 4.0 (≈ 9 µM) | decreased the amount of toxin in a similar concentration-dependent manner | MIC [2]: 2.7 µg/mL (≈ 6.07 µM); SI (SID) HepG2 [3]: 62.9; SI (SIR) HepG2 [3]: 12.0; IC50 (Cytotoxicity assay HepG2): ~107 µM; MIC [4]: 22.2 µg/mL (≈ 49.9 µM); MIC ([6]; Clostridioides difficile, NAP1, 48 h, read-out: MIC C. difficile, NAP1, modified broth microdilution, 48 h, anaerobic): 2 to 4 µg/mL (≈ 4.5 to 9 µM); SI (SID) J774 [7]: 34.8; SI (SIR) J774 [7]: 6.6; IC50 [8]: 59.1 µM
CC1(C)CCCC2(C)C1CCC(C)(O)C2Cc1ccc(O)cc1 (stereo not shown) [Compound 34] |  |  |  | 30.9 | 3.7 | 114.3 | 16.0 (≈ 50.6 µM) | decreased the amount of toxin in a similar concentration-dependent manner | MIC E. faecalis [10]: 15.8 µg/mL (≈ 49.9 µM); MIC S. aureus [11]: 16.9 µg/mL (≈ 53.4 µM); MIC B. subtilis [12]: 7.9 µg/mL (≈ 25 µM)
